Test results: ChEMBL document CHEMBL5230155, “Recent contributions of quinolines to antimalarial and anticancer drug discovery research” (Eur J Med Chem, 2021)

What was measured:
Plasmodium falciparum [1] = system: Plasmodium falciparum
Description: Antimalarial activity against CQ-sensitive Plasmodium falciparum NF54

[2] = biological target: T1, Tyrosine-protein kinase receptor UFO (Homo sapiens, UniProt P30530); test: Inhibition of AXL (unknown origin)
T1 sequence (P30530 whole entry): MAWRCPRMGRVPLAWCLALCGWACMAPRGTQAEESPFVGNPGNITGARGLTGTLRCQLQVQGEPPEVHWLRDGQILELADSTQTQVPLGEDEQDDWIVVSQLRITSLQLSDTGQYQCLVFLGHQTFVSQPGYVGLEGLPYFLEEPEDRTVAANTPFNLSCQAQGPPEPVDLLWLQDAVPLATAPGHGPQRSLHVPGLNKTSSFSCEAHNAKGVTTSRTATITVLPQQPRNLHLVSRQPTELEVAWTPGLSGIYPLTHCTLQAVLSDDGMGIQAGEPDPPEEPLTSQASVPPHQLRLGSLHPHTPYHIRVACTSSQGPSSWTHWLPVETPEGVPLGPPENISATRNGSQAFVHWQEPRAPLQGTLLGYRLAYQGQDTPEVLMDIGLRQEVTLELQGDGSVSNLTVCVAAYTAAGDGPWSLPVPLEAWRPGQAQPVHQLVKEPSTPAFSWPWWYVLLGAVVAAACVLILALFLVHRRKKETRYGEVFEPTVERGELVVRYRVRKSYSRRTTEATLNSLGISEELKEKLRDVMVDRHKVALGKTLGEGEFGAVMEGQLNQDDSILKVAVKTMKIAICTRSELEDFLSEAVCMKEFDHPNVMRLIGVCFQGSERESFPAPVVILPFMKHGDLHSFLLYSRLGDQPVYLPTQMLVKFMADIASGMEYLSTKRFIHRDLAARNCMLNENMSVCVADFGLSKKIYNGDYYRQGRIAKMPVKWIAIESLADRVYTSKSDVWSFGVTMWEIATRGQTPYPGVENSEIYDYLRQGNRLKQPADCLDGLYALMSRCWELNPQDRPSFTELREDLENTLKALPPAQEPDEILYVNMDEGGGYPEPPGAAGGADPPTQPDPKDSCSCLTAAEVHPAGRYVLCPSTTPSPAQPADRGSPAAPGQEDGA

[3] = Cytotoxicity against african green monkey Vero cells; format: toxicity, cell-based; conditions: African green monkey (Chlorocebus sabaeus)
Plasmodium falciparum [4] = test: Antimalarial activity against CQ-sensitive Plasmodium falciparum 3D7; format: functional, organism-based
MCF7 = test: Antiproliferative activity against human MCF7 cells; format: functional, cell-based; conditions: Homo sapiens, MCF7
DLD-1 = test: Antiproliferative activity against human DLD-1 cells; format: functional, cell-based
HeLa = test: Antiproliferative activity against human HeLa cells; format: functional, cell-based
[5] = Inhibition of PI3K (unknown origin); parameters: species or system Homo sapiens
Plasmodium falciparum [6] = test: Antimalarial activity against Plasmodium falciparum 3D7; format: functional, organism-based
Plasmodium falciparum [7] = test: Antimalarial activity against multidrug resistant Plasmodium falciparum Dd2; format: functional, organism-based
Plasmodium falciparum [8] = test: Antimalarial activity against multidrug resistant Plasmodium falciparum K1; format: functional, organism-based
MDA-MB-453 = test: Antiproliferative activity against human MDA-MB-453 cells; format: functional, cell-based
SNU-423 = test: Antiproliferative activity against human SNU-423 cells; format: functional, cell-based
RT-112 = test: Antiproliferative activity against human RT-112 cells; format: functional, cell-based
Plasmodium falciparum [9] = test: Antimalarial activity against CQ-sensitive Plasmodium falciparum D6; format: functional, organism-based

## Clc1ccc2c(N3CC(CN4CCCC4)N=N3)ccnc2c1 (stereo unspecified) [listing 1 of 2 here]
Plasmodium falciparum [1]
  IC50: 0.206 µM

## Clc1ccc2c(N3CC(CN4CCCCC4)N=N3)ccnc2c1 (stereo unspecified) [listing 1 of 2 here]
Plasmodium falciparum [1]
  IC50: 4.56 µM

## COc1cc2nccc(Oc3ccc(NC(=O)Nc4ccc(F)cc4F)c(F)c3)c2cc1OC
[2]
  IC50: 0.36 µM

## Clc1ccc2c(N3CC(CN4CCCC4)N=N3)ccnc2c1 (stereo unspecified) [listing 2 of 2 here]
Plasmodium falciparum [1]
  IC50: 4.56 µM

## O=C(Cn1cc(-c2ccccc2)nn1)NCCCNc1ccnc2cc(Cl)ccc12
[3]
  IC50: > 5 µM
Plasmodium falciparum [4]
  IC50: 0.0387 µM

## CCONC(=O)c1sc(N2N=C(c3ccc(C)cc3)CC2c2cc3cc(OC)ccc3nc2Cl)nc1C (stereo unspecified)
MCF7
  IC50: 0.038 µM
DLD-1
  IC50: 0.038 µM
HeLa
  IC50: 0.038 µM

## COc1cc2c(Oc3ccc(NS(=O)(=O)c4ccccc4C(F)(F)F)cc3F)ccnc2cc1OCCCN1CCC(C)CC1
[2]
  IC50: 0.021 µM

## COc1cc2c(Oc3ccc(NS(=O)(=O)c4cc(F)ccc4F)cc3F)ccnc2cc1OCCCN1CCCC(C)C1 (stereo unspecified)
[2]
  IC50: 0.021 µM

## COc1cc2c(Oc3ccc(NS(=O)(=O)c4ccccc4OC(F)(F)F)cc3F)ccnc2cc1OCCCN1CCN(C)CC1
[2]
  IC50: 0.027 µM

## Clc1ccc2c(N3CC(CN4CCOCC4)N=N3)ccnc2c1 (stereo unspecified) [listing 1 of 2 here]
Plasmodium falciparum [1]
  IC50: 4.56 µM

## O=C(O)c1cc(C#Cc2c(C3CC3)nc3ccccc3c2-c2ccc(F)cc2)ccc1Br
[5]
  IC50: 0.45 µM

## Clc1ccc2c(N3CC(CN4CCCCC4)N=N3)ccnc2c1 (stereo unspecified) [listing 2 of 2 here]
Plasmodium falciparum [1]
  IC50: 0.206 µM

## Clc1ccc2c(N3CC(CN4CCOCC4)N=N3)ccnc2c1 (stereo unspecified) [listing 2 of 2 here]
Plasmodium falciparum [1]
  IC50: 0.206 µM

## CC(=O)c1ccc(C#Cc2c(C3CC3)nc3ccccc3c2-c2ccc(F)cc2)cc1
[5]
  IC50: 0.45 µM

## COc1ccc2nc(O)c(/C=C/C(=O)c3ccc(C)cc3)cc2c1
MCF7
  IC50: 0.038 µM
DLD-1
  IC50: 0.038 µM
HeLa
  IC50: 0.038 µM

## CNC(=O)c1sc(N2N=C(c3ccc(C)cc3)CC2c2cc3cc(OC)ccc3nc2Cl)nc1C (stereo unspecified)
MCF7
  IC50: 0.038 µM
DLD-1
  IC50: 0.038 µM
HeLa
  IC50: 0.038 µM

## C#CCCCN(CCNc1ccnc2cc(Cl)ccc12)C(=O)CCC(=O)O[C@@H]1O[C@@H]2O[C@@]3(C)CC[C@H]4[C@H](C)CCC([C@H]1C)[C@@]24OO3 (stereo partly specified)
Plasmodium falciparum [6]
  EC50: 0.00078 µM
Plasmodium falciparum [7]
  EC50: 0.00078 µM
Plasmodium falciparum [8]
  EC50: 0.00078 µM

## COc1cc2c(Oc3ccc(NS(=O)(=O)c4c(F)cccc4F)cc3F)ccnc2cc1OCCCN1CCN(C)CC1
[2]
  IC50: 0.027 µM

## COc1ccc2nc(Cl)c(C3CC(c4ccc(C)cc4)=NN3c3nc(C)c(/N=N/c4ccccc4)s3)cc2c1 (stereo unspecified)
MCF7
  IC50: 0.038 µM
DLD-1
  IC50: 0.038 µM
HeLa
  IC50: 0.038 µM

## COc1cc(N(CCCSC(=S)N2CCN(C)CC2)S(=O)(=O)c2cccc3cccnc23)cc(OC)c1OC
MDA-MB-453
  IC50: 0.7 µM
SNU-423
  IC50: 0.7 µM
RT-112
  IC50: 0.7 µM

## COc1ccc2nc(Cl)c(C3CC(c4ccc(C)cc4)=NN3c3nc(-c4ccc(C)cc4)cs3)cc2c1 (stereo unspecified)
MCF7
  IC50: 0.038 µM
DLD-1
  IC50: 0.038 µM
HeLa
  IC50: 0.038 µM

## C[C@@H]1CCC2[C@@H](C)[C@H](OC(=O)CCC(=O)NCCNc3ccnc4cc(Cl)ccc34)O[C@@H]3O[C@@]4(C)CC[C@@H]1[C@@]23OO4 (stereo partly specified)
Plasmodium falciparum [6]
  EC50: 0.00078 µM
Plasmodium falciparum [7]
  EC50: 0.00078 µM
Plasmodium falciparum [8]
  EC50: 0.00078 µM

## COc1cc(N(CCCSC(=S)N2CCN(CCO)CC2)S(=O)(=O)c2cccc3cccnc23)cc(OC)c1OC
MDA-MB-453
  IC50: 0.7 µM
SNU-423
  IC50: 0.7 µM
RT-112
  IC50: 0.7 µM

## Clc1ccc2c(N3CCN(CCCN4CCN(c5ccnc6cc(Cl)ccc56)CC4)CC3)ccnc2c1 [PIPERAQUINE]
Plasmodium falciparum [9]
  IC50: 0.0007 µM
Plasmodium falciparum [7]
  IC50: 0.0015 µM

## COc1ccc2nc(Cl)c(C3CC(c4ccc(C)cc4)=NN3c3nc(-c4ccc(Cl)cc4)cs3)cc2c1 (stereo unspecified)
MCF7
  IC50: 0.038 µM
DLD-1
  IC50: 0.038 µM
HeLa
  IC50: 0.038 µM

## C#CCCCC(C(=O)NCCOC(=O)CCC(=O)O[C@@H]1O[C@@H]2O[C@@]3(C)CC[C@H]4[C@H](C)CCC([C@H]1C)[C@@]24OO3)c1ccnc2cc(Cl)ccc12 (stereo partly specified)
Plasmodium falciparum [6]
  EC50: 0.00078 µM
Plasmodium falciparum [7]
  EC50: 0.00078 µM
Plasmodium falciparum [8]
  EC50: 0.00078 µM

## C[C@@H]1CC[C@H]2[C@@H](C)C(=O)O[C@@H]3O[C@@]4(C)CC[C@@H]1[C@]32OO4 [ARTEMISININ]
Plasmodium falciparum [6]
  EC50: 0.0054 µM
Plasmodium falciparum [7]
  EC50: 0.0054 µM
Plasmodium falciparum [8]
  EC50: 0.0054 µM

## CCN1CCN(C(=S)SCCCN(c2cc(OC)c(OC)c(OC)c2)S(=O)(=O)c2cccc3cccnc23)CC1
MDA-MB-453
  IC50: 0.7 µM
SNU-423
  IC50: 0.7 µM
RT-112
  IC50: 0.7 µM
